Measured values reported in patent US11426346B2, “Lutein-containing ophthalmic composition” (Taipei Medical University, priority 2019, dated 2022).

What was measured:
Format in all cases: cell-based, human
TNF-α = assay: Gene expression of inflammatory cytokine TNF-α in LPS-induced HCE-2 cells (Real-Time PCR); settings: 500 ng/mL LPS 6 hours, then 2 hours treatment, compared with LPS group, FIG. 3C
Experimental: (§1) 3×10^5 (cell/ml) human corneal epithelial cells (HCE-2) were cultured in a 6-well plate and cultured overnight in an incubator for cell attachment, followed 500 ng/mL lipopolysaccharides (LPS) was added in culture medium for co-cultured with cells for 6 hours to induce cell inflammation. After 6 hours, the medium containing lipopolysaccharide (LPS) was removed, and the medium with the lutein, PVA was added to a 6-well plate. After 2 hours of treatment, the gene expressions of cellular inflammatory cytokines (IL-1β, IL-6, TNF-α) were detected by real-time polymerase chain reaction (Real-Time PCR). […]

IL-1β = assay: Gene expression of inflammatory cytokine IL-1β in LPS-induced HCE-2 cells (Real-Time PCR); settings: 500 ng/mL LPS 6 hours, then 2 hours treatment, compared with LPS group, FIG. 3A
Experimental: as §1

IL-6 = assay: Gene expression of inflammatory cytokine IL-6 in LPS-induced HCE-2 cells (Real-Time PCR); settings: 500 ng/mL LPS 6 hours, then 2 hours treatment, compared with LPS group, FIG. 3B
Experimental: as §1

CC1=C[C@H](O)CC(C)(C)[C@H]1/C=C/C(C)=C/C=C/C(C)=C/C=C/C=C(C)/C=C/C=C(C)/C=C/C1=C(C)C[C@@H](O)CC1(C)C [lutein (L), lutein]
inhibit the expression: gene expression of TNF-α (TNF-α) | gene expression of IL-1β (IL-1β) | gene expression of IL-6 (IL-6)
